Assay results as given in PubChem BioAssay (NCI).
Where “and” joins values, the source holds several entries; their conditions need not be identical. Identical values can stand only once.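 Five compound concentrations were applied to cells in 96-well plates for 48 hours; endpoints were derived by simple linear interpolation of the resulting dose-response curve. GI50 = concentration required for 50% inhibition of growth. The concentration for full growth arrest is given as TGI.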 Where a SMILES comes first, the peptide text is derived from it. Bridges are numbered along the chain shown (N, C = ends). [ ]: non-standard residue; d: D form. The star is where a group is joined. ξ: configuration not given here. ξDab(CH2SO3H) = NC(CCNCS(=O)(=O)O)C(=O)O; Heptanoyl(6-Me) = CC(C)CCCCC(=O)*; Dab = NCC[CH](N)C(=O)O

Key:
Assay in all cases: inhibition of tumour cell growth, NCI panel, 48 h
[1] = system: A498 renal
[2] = system: RPMI-8226 leukemia
[3] = system: NCI-H226 lung
[4] = system: LOX IMVI melanoma
[5] = system: CCRF-CEM leukemia
[6] = system: MALME-3M melanoma
[7] = system: HT29 colon
[8] = system: HCT-15 colon
[9] = system: RXF 393 renal
[10] = system: PC-3 prostate

| Structure (SMILES) | TGI [1] [µM] | TGI [2] [µM] | TGI [3] [µM] | TGI [4] [µM] | TGI [5] [µM] | TGI [6] [µM] | TGI [7] [µM] | TGI [8] [µM] | TGI [9] [µM] | TGI [10] [µM] | GI50 [1] | GI50 [9] [µM] | GI50 [3] | GI50 [4] [µM] | GI50 [10] [µM] | GI50 [6] | GI50 [7] | GI50 [8] [µM] | GI50 [2] [µM] | GI50 [5] [µM] |
| --- | --- | --- | --- | --- | --- | --- | --- | --- | --- | --- | --- | --- | --- | --- | --- | --- | --- | --- | --- | --- |
| O=C(O)COc1ccc(C(=O)/C(SS/C(C(=O)c2ccc(OCC(=O)O)c(Cl)c2Cl)=C2\C=C(c3ccc(Cl)cc3)SS2)=C2/C=C(c3ccc(Cl)cc3)SS2)c(Cl)c1Cl | > 100 | 43.3 | 18.7 | 15.3 | 5.85 | > 100 | > 100 | 18.1 |  |  |  |  |  |  |  |  |  |  |  |  |
| C(=N\Nc1ccccc1)/c1nc2ccccc2nc1/C=N/Nc1ccccc1 | 31.1 |  | 34.3 | 22.1 | > 100 | 41.6 | 23.5 | 25.8 | 30.1 |  |  |  |  |  |  |  |  |  |  |  |
| NC(N)=NC(N)=Nc1cnccn1 | > 100 |  | > 100 | > 100 | > 100 | > 100 | > 100 | > 100 | > 100 | > 100 |  |  |  |  |  |  |  |  |  |  |
| O=C(NC(=O)c1ccccc1[N+](=O)[O-])Nc1ccc(Oc2ncc(Cl)cn2)c([N+](=O)[O-])c1 | 30.3 | > 100 | 1.07 | > 100 | > 100 | > 100 | 3.31 | > 95.6 |  | > 100 |  |  |  |  |  |  |  |  |  |  |
| CCC(C)C1NC(=O)C(CCNCS(=O)(=O)O)NC(=O)C(NC(=O)C(CCNCS(=O)(=O)O)NC(=O)C(NC(=O)C(CCNCS(=O)(=O)O)NC(=O)CCCCC(C)C)C(C)O)CCNC(=O)C(C(C)O)NC(=O)C(CCNCS(=O)(=O)O)NC(=O)C(CCNCS(=O)(=O)O)NC(=O)C(C(C)CC)NC1=O (centres undefined) ({Heptanoyl(6-Me)}-[ξDab(CH2SO3H)]T[ξDab(CH2SO3H)][Dab][ξDab(CH2SO3H)]II[ξDab(CH2SO3H)][ξDab(CH2SO3H)]T; lactam 4-C; configuration not given here) | > 25 |  | > 25 | > 25 |  | > 25 | > 25 | > 25 | > 25 | > 25 | 7.07 µM | 7.47 | 8.25 µM | 5.21 | 7.97 | > 25 µM | 7.92 µM | > 25 |  |  |
| COc1cc(O)c2c(c1)O[C@@H]1OCC[C@H]21 | > 100 | > 100 | > 100 | > 100 | > 100 | > 100 | > 100 | > 100 |  |  |  |  |  |  |  |  |  |  |  |  |
| COc1cc(-c2oc3c(OC)cc(OC)c(O)c3c(=O)c2OC)cc(OC)c1OC |  | > 100 | > 100 | > 100 |  | > 100 | > 100 |  | > 100 | > 100 |  |  |  |  |  |  |  |  |  |  |
| COc1ccc(Cc2c(=O)[nH]nc3ccccc23)cc1 | > 100 | > 100 | > 100 | > 100 | > 100 | > 100 | > 100 | > 100 |  |  |  |  |  |  |  |  |  |  |  |  |
| CC[C@@]1(O)C(=O)OCc2c1cc1n(c2=O)Cc2cc3cccc([N+](=O)[O-])c3nc2-1 | 5.03 | 64.5 | 6.49 | 6.14 | 50.4 | > 100 | > 100 |  | 7.18 |  | 1.43 µM | 1.83 | 0.552 µM | 0.429 |  | 4.35 µM | 2.18 µM |  | 1.71 | 0.0506 |
| CN(C)CCCCC(C(=O)CBr)(c1ccccc1)c1ccccc1 |  | 5.53 | 8.39 | 2.99 | 6.45 | 3.62 | 3.94 | 3.37 | 4.06 | 9.58 |  | 1.74 | 2.38 µM | 1.44 | 2.71 | 1.44 µM | 1.92 µM | 1.64 | 1.96 | 2.06 |
| C=C1C(=O)O[C@H]2C[C@@H]1CC/C(C)=C/CC/C(C)=C/CC[C@@]2(C)O | > 100 | 43.5 | 58.1 | 31.5 | 38.9 |  | > 100 | 71.6 | > 100 | 95 | 43.8 µM | > 100 | 24.4 µM | 17.4 | 29.9 |  | 34.6 µM | 26.4 | 20.4 | 16.5 |
| O=c1c2ccccc2nc(/C=C(\O)c2ccncc2)n1-c1ccc(Cl)cc1 | > 100 | > 100 | > 100 |  | > 100 | > 100 | > 100 | > 100 |  |  |  |  |  |  |  |  |  |  |  |  |
| N#Cc1c(N)n2c(nc1=Nc1ccc(Cl)cc1)sc1cc(Cl)ccc12 | 9.62 | 9.27 | 9 | > 100 |  | > 100 | > 100 | > 100 |  |  | 5.24 µM and 1.2 µM |  | 6.71 µM and 2.39 µM | 13.5 | 4.65 | 6.35 µM and 14.8 µM | 5.67 µM and 3.77 µM | 5.47 | 1.26 | 4.21 |
| O=C(NCc1cccnc1)C1COc2cc(-c3cc(=O)c4ccccc4o3)ccc2O1 (centres undefined) | 99.7 | > 100 | > 57.1 | > 63.1 | > 100 | > 100 | > 100 | > 100 | > 61.2 |  |  |  |  |  |  |  |  |  |  |  |
| Nc1nc(Cl)cc(NCC(O)CO)n1 (centres undefined) | > 100 | > 100 | > 100 | > 100 | > 100 | > 100 | > 100 | > 100 | > 100 |  |  |  |  |  |  |  |  |  |  |  |
| Cc1nn2c(nc1=O)sc1ccc3ccccc3c12 |  |  | > 100 | > 100 | > 100 | > 100 | > 100 | > 100 | > 100 |  |  |  |  |  |  |  |  |  |  |  |
| O=[N+]([O-])c1cc([N+](=O)[O-])c(/C=C/c2ccc(Cl)c(Cl)c2)cc1/C=C/c1ccc(Cl)c(Cl)c1 | > 100 | 50.3 | 66.3 | 61.6 | 53.4 | 56.3 | 63.7 | 58.9 | 37 |  |  |  |  |  |  |  |  |  |  |  |
| CCCCC(C(=O)CCC(=O)Nc1ccc(Cl)c(Cl)c1)C(=O)C(C)C (centres undefined) | > 100 | > 100 | > 100 | > 100 | > 100 | > 100 | > 100 | > 100 | > 100 |  |  |  |  |  |  |  |  |  |  |  |
| COc1ccc(Cn2cc3c(c2-c2ccccc2)CCc2cnoc2-3)cc1OC | 3.27 | > 100 | > 100 | > 100 | > 100 |  | > 100 | > 100 | > 100 | > 100 | 0.253 µM | 1.68 | 5.75 µM | 0.819 | 3.08 |  | 0.387 µM | 0.522 | 3.16 | 1.78 |
